Assays:
[1] = 298.15 K; 101 kPa; Liquid
[2] = xn = mol fraction of the nth substance listed; conditions: 298.15 K, 101 kPa, Liquid

CCO [ethanol]
Conditions | mass density [kg/m3]
[1] | 785.2

COC(=O)OC [dimethyl carbonate]
Conditions | mass density [kg/m3]
[1] | 1063.19

COC(=O)OC [dimethyl carbonate] + CCCO
[2]
Conditions | mass density [kg/m3]
x2 = 0 | 1063.19
x2 = 0.0501 | 1050.5
x2 = 0.1002 | 1037.73
x2 = 0.1498 | 1025.44
x2 = 0.1999 | 1012.47
x2 = 0.2502 | 999.85
x2 = 0.2999 | 987.13
x2 = 0.3498 | 974.39
x2 = 0.3998 | 961.45
x2 = 0.4499 | 948.47
x2 = 0.5001 | 935.29
x2 = 0.55 | 922.19
x2 = 0.6 | 908.92
x2 = 0.6501 | 895.57
x2 = 0.7001 | 882.18
x2 = 0.75 | 868.68
x2 = 0.8002 | 855.15
x2 = 0.8501 | 841.36
x2 = 0.9002 | 827.59
x2 = 0.9502 | 813.83

CCCCO [butan-1-ol]
Conditions | mass density [kg/m3]
[1] | 806.04

COC(=O)OC [dimethyl carbonate] + CCO
[2]
Conditions | mass density [kg/m3]
x2 = 0 | 1063.19
x2 = 0.0501 | 1052.75
x2 = 0.1 | 1042.29
x2 = 0.1501 | 1031.54
x2 = 0.1998 | 1020.64
x2 = 0.2498 | 1009.34
x2 = 0.2998 | 997.73
x2 = 0.3501 | 985.68
x2 = 0.4002 | 973.28
x2 = 0.4499 | 960.59
x2 = 0.5 | 947.4
x2 = 0.55 | 933.74
x2 = 0.6001 | 919.57
x2 = 0.65 | 905
x2 = 0.6999 | 889.89
x2 = 0.7499 | 874.1
x2 = 0.8001 | 857.71
x2 = 0.8498 | 840.7
x2 = 0.8998 | 822.98
x2 = 0.95 | 804.45

CCCCO [butan-1-ol] + COC(=O)OC
Conditions | mass density [kg/m3]
[2], x1 = 1 | 806.04

CCCO [propan-1-ol] + COC(=O)OC
Conditions | mass density [kg/m3]
[2], x1 = 1 | 799.75

CCO [ethanol] + COC(=O)OC
Conditions | mass density [kg/m3]
[2], x1 = 1 | 785.2

CCCO [propan-1-ol]
Conditions | mass density [kg/m3]
[1] | 799.75

COC(=O)OC [dimethyl carbonate] + CCCCO
[2]
Conditions | mass density [kg/m3]
x2 = 0 | 1063.19
x2 = 0.0502 | 1047.97
x2 = 0.0999 | 1033.24
x2 = 0.1499 | 1018.51
x2 = 0.2003 | 1004.53
x2 = 0.2501 | 990.53
x2 = 0.2998 | 976.9
x2 = 0.3499 | 963.39
x2 = 0.4 | 950.13
x2 = 0.4501 | 937.02
x2 = 0.5 | 924.2
x2 = 0.55 | 911.58
x2 = 0.6 | 899.07
x2 = 0.65 | 886.83
x2 = 0.7 | 874.68
x2 = 0.7499 | 862.98
x2 = 0.7999 | 851.07
x2 = 0.85 | 839.53
x2 = 0.8999 | 828.11
x2 = 0.9499 | 817

Source: the NIST ThermoML archive (doi:10.1021/je060217u)
